Measurements: patent US7799821B2, “Therapeutic compounds” (Allergan, Inc., priority 2004, dated 2010)

Tests used:
[1] = test system: monkeys; test: Intraocular pressure (IOP) in monkeys; assay type: in vivo
[2] = test system: Beagle dogs; test: Ocular surface hyperemia, dogs; assay type: in vivo; set-up: key: 0.5: <1 trace; 1 mild; 2: moderate; 3: severe; conditions: score
Method: (§1) Ocular surface hyperemia was visually assessed and scored according to a system typically used clinically.
(§2) Ocular surface hyperemia was evaluated at the same time points as intraocular pressure measurement. It should be noted that untreated dog eyes frequently have a pink/red tone. Thus, values of trace or even mild are not necessarily out of the normal range. Similar tests were used to determine ocular surface hyperemia on monkeys and rabbits.

[3] = test system: Beagle dogs; test: Intraocular pressure (IOP) in dogs, pneumatonometry; assay type: in vivo; conditions: topical
Method: (§3) Intraocular pressure studies in dogs involved pneumatonometry performed in conscious, Beagle dogs of both sexes (10-15 kg). The animals remained conscious throughout the study and were gently restrained by hand. Drugs were administered topically to one eye as a 25 μL volume drop, the other eye received 25 μL vehicle (0.1% (w/v) polysorbate 80; 10 mM TRIS) as a control. Proparacaine (0.1% w/v) was used for corneal anesthesia during tonometry. Intraocular pressure was determined just before drug administration and at 2, 4 and 6 hr thereafter on each day of the 5 day study. Drug was administered immediately after the first IOP reading.
as §3, with “(0.1%” for “(0.1% (w/v)”, “80:10” for “80; 10”, “(0.1%)” for “(0.1% w/v)”

[4] = test system: rabbits; test: Ocular surface hyperemia, rabbits; assay type: in vivo; conditions: Conc. 0.10% (0.1%) g/100 mL, score
Method: as §1, §2

[5] = target: T1, HEP3 (Homo sapiens, UniProt P43115); test: Radioligand binding, EP3; conditions: printed in the HEP3 binding column; read-out: Ki (marked "Ki" in BINDING HEP3)
T1 sequence (P43115 1-390): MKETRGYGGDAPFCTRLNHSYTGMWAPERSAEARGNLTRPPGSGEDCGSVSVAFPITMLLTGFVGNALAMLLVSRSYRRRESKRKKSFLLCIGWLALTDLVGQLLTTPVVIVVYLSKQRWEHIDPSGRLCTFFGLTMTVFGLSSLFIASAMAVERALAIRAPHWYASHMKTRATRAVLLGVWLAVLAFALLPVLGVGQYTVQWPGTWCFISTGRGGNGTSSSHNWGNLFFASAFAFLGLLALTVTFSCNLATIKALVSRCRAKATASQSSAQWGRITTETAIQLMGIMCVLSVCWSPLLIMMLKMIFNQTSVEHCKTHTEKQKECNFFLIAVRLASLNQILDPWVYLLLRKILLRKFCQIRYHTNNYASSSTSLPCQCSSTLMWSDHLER

[6] = target: T2, hEP2/Gqs5 (Homo sapiens, UniProt P43116); test: FLIPR calcium signal, hEP2; assay type: cell-based; conditions: FLIPR Ca2+ signal, HEK-293(EBNA); read-out: FUNCTIONAL EC50 HEP2
T2 construct: expressed in transfected cells; host or cells: HEK-293(EBNA)
Summary of the method: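 HEK-293(EBNA) cells stably expressing each human prostanoid receptor (EP2 and EP3A coupled via Gqs5/Gqi5 chimeras) were loaded with Fluo-4 AM, and peak calcium fluorescence was measured on FLIPR at 37° C. Compounds were tested at 10^−5 M or from 10^−11 to 10^−5 M in duplicate, n≥3, with response expressed relative to buffer and standard agonist controls.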

T2 sequence (P43116 whole entry): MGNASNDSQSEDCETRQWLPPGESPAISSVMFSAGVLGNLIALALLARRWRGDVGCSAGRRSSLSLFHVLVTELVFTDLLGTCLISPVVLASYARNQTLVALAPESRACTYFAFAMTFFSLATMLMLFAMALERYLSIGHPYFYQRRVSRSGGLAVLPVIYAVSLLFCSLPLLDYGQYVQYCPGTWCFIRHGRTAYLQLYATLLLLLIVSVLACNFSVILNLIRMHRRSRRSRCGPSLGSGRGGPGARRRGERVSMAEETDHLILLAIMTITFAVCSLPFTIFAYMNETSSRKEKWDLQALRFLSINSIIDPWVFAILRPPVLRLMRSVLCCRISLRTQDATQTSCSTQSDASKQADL

Row | Structure (SMILES) | MONKEY Max. ΔIOP (mm Hg) ([1]; Conc. 0.10% (0.1%) g/100 mL) | DOG Max. hyperemia ([2]; Conc. 0.10% (0.1%) g/100 mL) | RABBIT Max. hyperemia [4] | DOG Max. ΔIOP (mm Hg) ([3]; Conc. 0.10% (0.1%) g/100 mL) | also measured
1 | CCCCCC(=O)c1ccc([C@@H]2[C@@H](C/C=C\CCCC(=O)O)[C@H](Cl)C[C@H]2O)cc1 | 31 mm Hg | 2.0 |  |  | 
2 | CC(C)(CO)c1ccc([C@@H]2[C@@H](C/C=C\CCCC(=O)O)[C@H](Cl)C[C@H]2O)cc1 [drawing 243] |  |  |  |  | DOG Max. hyperemia ([2]; Conc. 0.30% g/100 mL): 0.9; DOG Max. ΔIOP (mm Hg) ([3]; Conc. 0.30% g/100 mL): −8 mm Hg
3 | O=C(O)CCC/C=C\C[C@@H]1[C@@H](c2ccc(C(O)C3CCCCC3)cc2)[C@H](O)C[C@H]1Cl (some centres unmarked) [drawing 239] |  | 1 | 0 | −4 mm Hg | 
4 | O=C(O)CCC/C=C\C[C@@H]1[C@@H](c2ccc3c(c2)CCC3O)[C@H](O)C[C@H]1Cl (some centres unmarked) |  |  |  |  | MONKEY Max. ΔIOP (mm Hg) ([1]; Conc. 0.30% g/100 mL): 7 mm Hg; DOG Max. hyperemia ([2]; Conc. 0.30% g/100 mL): 1; DOG Max. ΔIOP (mm Hg) ([3]; Conc. 0.30% g/100 mL): −7 mm Hg
5 | CC(C)C(O)c1ccc([C@@H]2[C@@H](CCCCCCC(=O)O)[C@H](Cl)C[C@H]2O)cc1 (some centres unmarked) |  |  |  |  | Ki [5]: 3.02 µM; EC50 [6]: > 10 µM
6 | CC(C)OC(=O)CCC/C=C\C[C@@H]1[C@@H](c2ccc(C(C)(C)CO)cc2)[C@H](O)C[C@H]1Cl | 6 mm Hg | 0.7 | 0.1 | −5 mm Hg | 
7 | CCCCCC(O)c1ccc([C@@H]2[C@@H](C/C=C\CCCC(=O)OC(C)C)[C@H](Cl)C[C@H]2Cl)cc1 (some centres unmarked) | 19 mm Hg | 0.6 | 0.0 | −12 mm Hg | 
